Results published in patent publication US20230331779A1, “BISPECIFIC FUSION POLYPEPTIDE COMPOUND” (SHAANXI MICOT TECHNOLOGY CO., LTD., priority 2020, published 2023).
pEC50: −log10 of the molar value. Read-outs that look alike come from different tables or passages of the source. One block for each molecule: values may come before it.

Legend:
[1] = biological target: T1, calcium-sensing receptor (CASR) (Homo sapiens, UniProt P41180); experiment: CaSR activation, HTRF IP-1 competition method in HEK293-CaSR cells; type: cell-based
T1 construct: expressed in transfected cells; host or cells: HEK293-CaSR cells
T1 sequence (P41180 20-1078): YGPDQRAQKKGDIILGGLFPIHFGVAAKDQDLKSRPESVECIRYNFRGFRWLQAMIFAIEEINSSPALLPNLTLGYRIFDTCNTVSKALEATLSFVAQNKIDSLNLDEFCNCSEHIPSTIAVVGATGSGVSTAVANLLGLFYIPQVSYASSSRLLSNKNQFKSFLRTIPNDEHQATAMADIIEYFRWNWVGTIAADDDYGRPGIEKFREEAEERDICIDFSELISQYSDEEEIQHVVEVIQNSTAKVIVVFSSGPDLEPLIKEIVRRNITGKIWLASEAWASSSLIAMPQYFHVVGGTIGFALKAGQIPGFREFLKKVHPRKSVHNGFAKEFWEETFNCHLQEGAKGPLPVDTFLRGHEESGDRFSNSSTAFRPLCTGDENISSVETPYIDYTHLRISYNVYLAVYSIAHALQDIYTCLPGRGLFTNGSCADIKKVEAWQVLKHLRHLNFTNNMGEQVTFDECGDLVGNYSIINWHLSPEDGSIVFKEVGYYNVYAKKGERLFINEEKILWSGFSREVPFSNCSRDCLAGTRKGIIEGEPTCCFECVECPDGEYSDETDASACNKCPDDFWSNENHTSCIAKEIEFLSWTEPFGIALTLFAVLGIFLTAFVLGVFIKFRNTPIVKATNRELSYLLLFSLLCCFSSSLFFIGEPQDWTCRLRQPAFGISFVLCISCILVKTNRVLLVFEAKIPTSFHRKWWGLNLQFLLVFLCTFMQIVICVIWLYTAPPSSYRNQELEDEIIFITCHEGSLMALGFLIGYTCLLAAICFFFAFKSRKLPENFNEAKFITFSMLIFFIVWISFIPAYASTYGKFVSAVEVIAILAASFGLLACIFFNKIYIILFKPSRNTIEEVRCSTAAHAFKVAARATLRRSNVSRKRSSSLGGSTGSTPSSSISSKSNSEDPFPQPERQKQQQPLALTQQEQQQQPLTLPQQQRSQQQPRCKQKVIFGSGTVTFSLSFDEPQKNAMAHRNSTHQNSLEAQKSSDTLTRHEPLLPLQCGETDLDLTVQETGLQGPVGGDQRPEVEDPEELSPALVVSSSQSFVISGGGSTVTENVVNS
Text: In the CaSR activation experiment, the Homogeneous Time-Resolved Fluorescence (HTRF) IP-1 (myolnositol 1 phosphate) competition method was used to detect the effect of the polypeptide of Example 1 on CaSR.

[2] = Effect of single intravenous injection on blood calcium in normal rats; type: in vivo, rat; settings: for blood calcium level after a single intravenous bolus injection: normal SD rats
Protocol: (§1) Test method: SPF grade SD rats, weighing 250-280 g, were randomly divided into 7 groups, 6 administration groups and 1 blank control group (Vehicle=normal saline). The test samples were prepared into a solution with normal saline for administration. The test compound was administered by a single tail vein injection (1 mL/kg) at a dose of 0.5 mg/kg, 1.5 mg/kg and 4.5 mg/kg, respectively. Serum calcium (mmol/L) and phosphorus levels (mmol/L) were measured at 0 hour and at 4, 8 and 16 hours after administration.
(§2) Data processing: The concentrations of PTH, calcium and phosphorus in each group and at each time point were statistically analyzed using the graphpad 6.0 software.

[3] = Effect of single intravenous injection on blood phosphorus in normal rats; type: in vivo, rat; settings: for blood phosphorus level after a single intravenous bolus injection: normal SD rats
Protocol: as §1, §2

[4] = Plasma PTH in 5/6 nephrectomy rats (secondary hyperparathyroidism model); type: in vivo, rat; settings: 3.0 mg/kg s.c. three times a week
Protocol: Male SD rats were divided into a sham operation group and a 5/6 nephrectomy group (5/6Nx). Rats in the nephrectomy group underwent 5/6 nephrectomy, and were fed with high-phosphorus diet for two weeks after the operation to accelerate the induction of the secondary hyperparathyroidism rat model. After being fed with high-phosphorus diet for 3 weeks, the model rats were randomly divided into 6 groups, a 5/6Nx group (Vehicle), a positive control drug etelcalcetide group (3.0 mg/kg) and 4 groups of the compound of Example 1 (0.5, 1.0, 2.0, 4.0 mg/kg). The rats were administered subcutaneously three times a week for 6 consecutive weeks. Before the first administration, after the first administration, and 4 hours after administration in the 2nd, 4th, and 6th week, blood samples were collected from rats, and the plasma and serum were separated for the detection of the content of PTH in the plasma at each time point.

[5] = Cortical bone porosity in adenine-gavage SHPT rats (Micro CT of femur); type: in vivo, rat; settings: 3.0 mg/kg s.c. three times a week for six weeks, Mean ± SEM
Protocol: According to the Yokozawz method, SD rats were given adenine gavage to establish an animal model of chronic renal failure, and fed with a high-phosphorus diet to induce a model of secondary hyperparathyroidism. Rats were fed until the end of the experiment, and model rats were screened according to the content of PTH in plasma. According to the PTH content and body weight, the model rats were randomly divided into 5 groups: a normal saline group, an etelcalcetide (3.0 mg/kg, dissolved in normal saline) group, 3 groups of Example 1 (1.0 mg/kg, 2.0 mg/kg and 4.0 mg/kg, dissolved in normal saline), and subcutaneously administered three times a week for six consecutive weeks at 1.0 ml/kg per rat. Six weeks later, the left femur of the rat was taken, the muscle and connective tissue were removed, and the femur was placed in a 4% formalin solution. Micro CT scanning was performed 24 hours later, and data was subjected analysis.

[6] = tested on: osteoblast MC3T3-E1 Subclone 4 cells; experiment: CyQUANT in vitro proliferation of osteoblast cells; type: cell-based; settings: FIG. 1; Example 1 effect more pronounced than that of OGP
Protocol: (§3) The CyQUANT cell proliferation detection kit was used to determine the in vitro proliferation effect of the polypeptide of Example 1 on osteoblast MC3T3-E1 Subclone 4 and fibroblast NIH/3T3 cells. Osteogenic growth peptide (OGP) was used as a positive control in the experiment. The polypeptide of Example 1 and OGP were prepared to the following concentrations: 10^−8 mol/L, 10^−9 mol/L, 10^−10 mol/L, 10^−11 mol/L, 10^−12 mol/L, 10^−13 mol/L, 10^−14 mol/L, 10^−15 mol/L and 10^−16 mol/L. 100 μL of medium was discarded from each well of the cell plate to be tested, and 100 μL of 2×CyQuant detection reagent was added to each well. The plate was then placed in a 37° C., 5% CO2 incubator for 60 min. Fluorescence values were read in bottom-reading mode with excitation and emission wavelengths of 480/535 nm.
(§4) % relative to Control=(reading value of compound well−reading value of blank control well)/(reading value of base control well−reading value of blank control well)×100

fibroblast NIH/3T3 cells = experiment: CyQUANT in vitro proliferation of fibroblast cells; type: cell-based; settings: FIG. 1; comparable effective dose for Example 1 and OGP
Protocol: as §3, §4

[7] = 0.5 mg/kg i.v., 0 h (before administration)
[8] = 1.5 mg/kg i.v., 0 h (before administration)
[9] = 4.5 mg/kg i.v., 0 h (before administration)

pEC50 ([1]; Ca2+ concentration of 1.2 mM, read-out: EC50, agonistic activity on HEK293-CaSR cells): 4.07
pEC50 ([1]; in the absence of Ca2+, read-out: EC50, agonist activity on HEK293-CaSR cells): 3.01
Molecule: CC(=O)N[C@H](CSSC[C@H](NC(=O)CNC(=O)CNC(=O)[C@@H](Cc1ccccc1)NC(=O)C(C)(C)NC(=O)[C@H](N)Cc1ccc(O)cc1)C(=O)O)C(=O)N[C@H](C)C(=O)N[C@H](CCCNC(=N)N)C(=O)N[C@H](CCCNC(=N)N)C(=O)N[C@H](CCCNC(=N)N)C(=O)N[C@H](C)C(=O)N[C@H](CCCNC(=N)N)C(N)=O [Example 1]

Molecule: Example 2: Ac-D-Cys-D-Ala-D-Arg-D-Arg-D-Arg-D-Ala-D-Arg-NH2 linked by disulfide bond to H-D-Tyr-D-Arg-D-Phe-Gly-Gly-L-Cys-OH (CARRRAR; D-amino acids, Ac, NH2, disulfide-linked second peptide; MOD_RES (1)..(7) Cys, Ala and Arg are D-amino acids; MOD_RES (1)..(1) Cys is acetylated; MOD_RES (7)..(7) Arg is amidated; BINDING (1)..(1) Cys is linked ot Cys in SEQ ID NO 6 via disulfide bond)
blood calcium level after a single intravenous bolus injection [2, 7]: 2.42 ± 0.02 mmol/L
blood calcium level after a single intravenous bolus injection ([2]; 0.5 mg/kg i.v., 4 h): 2.05 ± 0.04 mmol/L
blood calcium level after a single intravenous bolus injection ([2]; 0.5 mg/kg i.v., 8 h): 2.20 ± 0.02 mmol/L
blood calcium level after a single intravenous bolus injection ([2]; 0.5 mg/kg i.v., 16 h): 2.27 ± 0.01 mmol/L
blood calcium level after a single intravenous bolus injection [2, 8]: 2.41 ± 0.06 mmol/L
blood calcium level after a single intravenous bolus injection ([2]; 1.5 mg/kg i.v., 4 h): 2.02 ± 0.06 mmol/L
blood calcium level after a single intravenous bolus injection ([2]; 1.5 mg/kg i.v., 8 h): 1.84 ± 0.04 mmol/L
blood calcium level after a single intravenous bolus injection ([2]; 1.5 mg/kg i.v., 16 h): 2.10 ± 0.03 mmol/L
blood calcium level after a single intravenous bolus injection [2, 9]: 2.45 ± 0.02 mmol/L
blood calcium level after a single intravenous bolus injection ([2]; 4.5 mg/kg i.v., 4 h): 1.79 ± 0.03 mmol/L
blood calcium level after a single intravenous bolus injection ([2]; 4.5 mg/kg i.v., 8 h): 1.53 ± 0.03 mmol/L
blood calcium level after a single intravenous bolus injection ([2]; 4.5 mg/kg i.v., 16 h): 1.64 ± 0.17 mmol/L
blood calcium levels compared with the concentration before administration (in words) ([2]; normal rats, single tail vein bolus injection, each administration group, P≤0.01): decreased significantly
time at which serum phosphorus level reached the highest ([3]; high-dose group (4.5 mg/kg)): 8 h
time at which serum phosphorus level reached the highest ([3]; low-dose group (0.5 mg/kg and 1.5 mg/kg)): 4 h
blood phosphorus level after a single intravenous bolus injection [3, 7]: 2.70 ± 0.06 mmol/L
blood phosphorus level after a single intravenous bolus injection ([3]; 0.5 mg/kg i.v., 4 h): 2.78 ± 0.14 mmol/L
blood phosphorus level after a single intravenous bolus injection ([3]; 0.5 mg/kg i.v., 8 h): 2.67 ± 0.06 mmol/L
blood phosphorus level after a single intravenous bolus injection ([3]; 0.5 mg/kg i.v., 16 h): 2.49 ± 0.08 mmol/L
blood phosphorus level after a single intravenous bolus injection [3, 8]: 2.65 ± 0.08 mmol/L
blood phosphorus level after a single intravenous bolus injection ([3]; 1.5 mg/kg i.v., 4 h): 3.04 ± 0.08 mmol/L
blood phosphorus level after a single intravenous bolus injection ([3]; 1.5 mg/kg i.v., 8 h): 3.05 ± 0.08 mmol/L
blood phosphorus level after a single intravenous bolus injection ([3]; 1.5 mg/kg i.v., 16 h): 2.47 ± 0.06 mmol/L
blood phosphorus level after a single intravenous bolus injection [3, 9]: 2.63 ± 0.02 mmol/L
blood phosphorus level after a single intravenous bolus injection ([3]; 4.5 mg/kg i.v., 4 h): 3.31 ± 0.08 mmol/L
blood phosphorus level after a single intravenous bolus injection ([3]; 4.5 mg/kg i.v., 8 h): 3.67 ± 0.1 mmol/L
blood phosphorus level after a single intravenous bolus injection ([3]; 4.5 mg/kg i.v., 16 h): 2.49 ± 0.06 mmol/L
effect on blood phosphorus concentration (in words) ([3]; normal rats, single tail vein bolus injection): increasing the blood phosphorus concentration

Molecule: CC(=O)N[C@H](CSSC[C@H](N)C(=O)O)C(=O)N[C@H](C)C(=O)N[C@H](CCCNC(=N)N)C(=O)N[C@H](CCCNC(=N)N)C(=O)N[C@H](CCCNC(=N)N)C(=O)N[C@H](C)C(=O)N[C@H](CCCNC(=N)N)C(N)=O [Etelcalcetide, etelcalcetide]
PTH change in plasma 4 h after administration ([4]; 2 weeks): −95.57 ± 0.28%
PTH change in plasma 4 h after administration ([4]; 4 weeks): −93.81 ± 0.59%
PTH change in plasma 4 h after administration ([4]; 6 weeks): −92.63 ± 0.77%
PTH change in plasma 4 h after administration ([4]; first administration): −92.03 ± 0.67%
Cortical bone porosity [5]: 4.13 ± 2.27%

Molecule: Osteogenic growth peptide [OGP]
concentration that significantly stimulated proliferation of osteoblast MC3T3-E1 Subclone 4 cells [6]: 10^−8 to 10^−16 M
concentration that significantly stimulates proliferation of fibroblast NIH3T3 cells (effective dose) (fibroblast NIH/3T3 cells): 10^−8 M
